The structures appear in SMILES notation.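 Growth conditions: 96-well plates. Treatment: test compound, 48 hours, 5 concentrations. Analysis: linear interpolation between bracketing concentrations; unreached endpoints set to highest concentration. TGI marks complete inhibition of growth.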 Where a SMILES comes first, the peptide text is derived from it. [ ]: non-standard residue; d: D form. The star is where a group is joined. ξ: configuration not given here. Propanoyl(3-(4-MeO-Ph)) = COc1ccc(CCC(=O)*)cc1; Thr(3ξ) = CC(O)[C@H](N)C(=O)O; dNMeL = CN[C@H](CC(C)C)C(=O)O; ξLac = CC(O)C(=O)O

Our source for the TGI values is PubChem BioAssay (NCI).

Some test systems named below: SF-539 CNS; HOP-62 NSCLC; SF-268 CNS; IGROV1 ovarian; PC-3 prostate; HT29 colon; KM12 colon; MDA-N; 786-0 renal; SR leukemia; SK-OV-3 ovarian.
Holding throughout (experiment): growth of human tumour cells (NCI), 48 h

Regarding `CO[C@H]1C[C@H](n2cc(C)c(=O)[nH]c2=O)O[C@@H]1CO`, the TGI in the test with SF-539 CNS, in the test with HOP-62 NSCLC, with SF-268 CNS, in the test on IGROV1 ovarian, with PC-3 prostate and in the test with HT29 colon was more than 100 µM throughout. For the same compound, the TGI in the test with KM12 colon, with MDA-N, in the test with 786-0 renal, in the test on SR leukemia and with SK-OV-3 ovarian was more than 100 µM throughout.

In the case of `CCCCNC(=S)c1ccc(OC(=O)Nc2ccc(Cl)cc2)cc1`, the TGI was more than 100 µM in the test on SF-539 CNS; more than 100 µM with HOP-62 NSCLC; more than 100 µM in the test with SF-268 CNS; 70.4 µM with IGROV1 ovarian; more than 100 µM in the test with PC-3 prostate; more than 100 µM with HT29 colon. Further, the TGI with KM12 colon, in the test on MDA-N, in the test on 786-0 renal, with SR leukemia and in the test with SK-OV-3 ovarian was more than 100 µM in each case.

Consider `COC(=O)c1c(O)ccc2c1c1c(n2Cc2ccccc2OC)C(=O)c2ccccc2C1`, for which the TGI in the test on SF-539 CNS is more than 100 µM; with HOP-62 NSCLC it was more than 100 µM; in the test on SF-268 CNS, more than 100 µM; in the test with IGROV1 ovarian, more than 100 µM; in the test on PC-3 prostate it was 78.8 µM; in the test on HT29 colon, more than 100 µM. Also, the TGI with KM12 colon, with MDA-N, in the test on 786-0 renal, in the test on SR leukemia and in the test on SK-OV-3 ovarian was more than 100 µM throughout.

For the compound `COc1cc(/C=C2\N=C(C)N(n3c(-c4ccccc4)nc4ccccc4c3=O)C2=O)cc(OC)c1OC`, the TGI in the test with SF-539 CNS, in the test on HOP-62 NSCLC, in the test on SF-268 CNS, in the test on IGROV1 ovarian, in the test with PC-3 prostate and in the test on HT29 colon was more than 100 µM in each case. For the same compound, the TGI with KM12 colon, in the test with MDA-N, in the test with 786-0 renal, in the test on SR leukemia and in the test with SK-OV-3 ovarian was more than 100 µM each time.

Regarding `CCCC(=O)Nc1cc(/C=C/C(=O)N2CC(CCl)c3c2cc([N+](=O)[O-])c2ccccc32)n(C)c1` (stereo not drawn), the TGI with SF-539 CNS, in the test with HOP-62 NSCLC, in the test with SF-268 CNS, with IGROV1 ovarian, with PC-3 prostate and in the test on HT29 colon was more than 100 µM throughout. The TGI in the test with KM12 colon was more than 82.6 µM; with MDA-N it was more than 100 µM; in the test on 786-0 renal it was more than 100 µM; in the test with SR leukemia, more than 100 µM; in the test on SK-OV-3 ovarian, more than 100 µM.

For `COc1ccc(N2C(N)=C(C#N)C(C#N)(C#N)C2c2cccc([N+](=O)[O-])c2)cc1` (stereo not drawn), the TGI in the test with SF-539 CNS stood at 28.9 µM; in the test with HOP-62 NSCLC it was 30.9 µM; with SF-268 CNS, 44 µM; in the test on IGROV1 ovarian, 29.7 µM; in the test with PC-3 prostate, 32.4 µM; in the test with HT29 colon it was 29.1 µM. Also, the TGI is 33.9 µM with KM12 colon; 31.5 µM with MDA-N; 29.1 µM in the test with 786-0 renal; more than 66 µM in the test on SR leukemia; 38.9 µM in the test on SK-OV-3 ovarian.

As to `O=C(O)CN(CC(=O)O)Cc1ccn(-c2cccc(-n3ccc(CN(CC(=O)O)CC(=O)O)n3)n2)n1`, the TGI in the test on SF-539 CNS, with HOP-62 NSCLC, with SF-268 CNS, in the test on IGROV1 ovarian, in the test on PC-3 prostate and in the test with HT29 colon was more than 100 µM throughout. For the same compound, the TGI with KM12 colon, in the test with MDA-N, with 786-0 renal, in the test on SR leukemia and in the test with SK-OV-3 ovarian was more than 100 µM in each case.

In the case of `O=C(CCc1ccc(O)c(O)c1)NCCc1ccc(O)c(O)c1`, the TGI in the test on SF-539 CNS, with HOP-62 NSCLC, in the test on SF-268 CNS, in the test with IGROV1 ovarian, in the test on PC-3 prostate and in the test with HT29 colon was more than 100 µM in each case. In addition, the TGI in the test with KM12 colon was more than 100 µM; in the test on MDA-N it was 33.9 µM; with 786-0 renal, 33.8 µM; in the test with SR leukemia, 74.1 µM; with SK-OV-3 ovarian, more than 100 µM.

In the case of `CCOc1cc2c(cc1O)CC[C@@H]1[C@@H]2CC[C@]2(C)C(OS(=O)OC3CC[C@@H]4[C@H]5CCc6cc(O)c(OCC)cc6[C@@H]5CC[C@@]34C)CC[C@@H]12` (stereo partly drawn), the TGI with SF-539 CNS is 1.85 µM; in the test on HOP-62 NSCLC, more than 27 µM; with SF-268 CNS, more than 100 µM; in the test with IGROV1 ovarian, 25.8 µM; in the test with PC-3 prostate, 24.9 µM; with HT29 colon, more than 53.7 µM. The TGI in the test on KM12 colon was more than 35.1 µM; in the test on MDA-N, 0.544 µM; with 786-0 renal, more than 34.3 µM; in the test with SR leukemia it was more than 44 µM; with SK-OV-3 ovarian, more than 37.3 µM.

As for `COC(=O)C(Cc1ccccc1)NC(=O)c1ccc(CNC(=S)NCc2cccc(CNC(=S)NCc3ccccc3)c2)cc1` (stereo not drawn), the TGI in the test with SF-539 CNS, with HOP-62 NSCLC, with SF-268 CNS, in the test on IGROV1 ovarian, with PC-3 prostate and in the test on HT29 colon was more than 62.5 µM in each case. The TGI with KM12 colon, with MDA-N, in the test with 786-0 renal, with SR leukemia and with SK-OV-3 ovarian was more than 62.5 µM each time.

Take `O=[N+]([O-])c1ccc2nc(/C=C(\O)c3ccccc3)c(/C=C(\O)c3ccccc3)nc2c1`: the TGI was 22.8 µM in the test on SF-539 CNS; 35.2 µM in the test on HOP-62 NSCLC; 53.4 µM in the test with SF-268 CNS; more than 56.4 µM with IGROV1 ovarian; more than 100 µM in the test on PC-3 prostate; more than 100 µM in the test with HT29 colon. Further, the TGI in the test on KM12 colon was more than 100 µM; in the test on MDA-N, more than 100 µM; in the test on 786-0 renal, 44.3 µM; in the test on SR leukemia, more than 94.9 µM; in the test on SK-OV-3 ovarian, more than 75.4 µM.

For the compound `CCNc1cc2c3c(c1)CCCN3CCC2`, the TGI was found to be 40.5 µM with SF-539 CNS; 28.4 µM in the test on HOP-62 NSCLC; 33.3 µM with SF-268 CNS; 31.5 µM with IGROV1 ovarian; 35.6 µM with PC-3 prostate; 21.6 µM in the test with HT29 colon. For the same compound, the TGI with KM12 colon is 29.9 µM; in the test with MDA-N, 10.9 µM; in the test with 786-0 renal, 26 µM; in the test with SR leukemia, 27.4 µM; in the test on SK-OV-3 ovarian, 37.3 µM.

As to `COC(=O)[C@@H](NC(=O)[C@@H](CC(C)C)N(C)C(=O)[C@@H]1CCCN1C(=O)C(C)O)C(C)OC(=O)CCc1ccc(OC)cc1` (stereo partly drawn) (H-[ξLac]P[dNMeL][Thr(3ξ)](Propanoyl(3-(4-MeO-Ph)))-OMe), the TGI in the test with SF-539 CNS, in the test with HOP-62 NSCLC, with SF-268 CNS, in the test on IGROV1 ovarian, with PC-3 prostate and with HT29 colon was more than 100 µM in each case. Also, the TGI in the test with KM12 colon, in the test with MDA-N, with 786-0 renal, in the test with SR leukemia and in the test with SK-OV-3 ovarian was more than 100 µM in each case.
